These are literature values, as cited in patent US20200352901A1, “TETRAHYDROCANNABINOL MODULATORS” (priority 2017, published 2020).

As a reminder, the Km is the substrate concentration at which the rate is half of its maximum.

Data set [1] deals with T1, CB1 (Homo sapiens, UniProt P21554). The note with it: read-out: Binding affinity to CB1.
Target sequence in this assay (P21554 whole entry): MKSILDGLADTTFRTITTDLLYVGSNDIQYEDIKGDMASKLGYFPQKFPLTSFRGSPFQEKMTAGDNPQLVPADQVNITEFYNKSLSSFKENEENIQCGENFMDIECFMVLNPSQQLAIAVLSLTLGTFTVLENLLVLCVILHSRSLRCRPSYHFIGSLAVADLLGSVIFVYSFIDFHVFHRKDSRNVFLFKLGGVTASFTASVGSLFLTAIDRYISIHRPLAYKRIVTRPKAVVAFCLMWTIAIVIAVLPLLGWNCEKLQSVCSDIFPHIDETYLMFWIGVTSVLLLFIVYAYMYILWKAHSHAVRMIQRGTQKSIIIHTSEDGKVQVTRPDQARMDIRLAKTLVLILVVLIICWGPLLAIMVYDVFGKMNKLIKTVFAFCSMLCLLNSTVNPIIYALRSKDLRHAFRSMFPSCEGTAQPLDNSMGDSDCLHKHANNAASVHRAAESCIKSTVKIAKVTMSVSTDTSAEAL
For data set [2], the target named is T2, human CB2 receptor (Homo sapiens, UniProt P34972). Conditions: cells expressing human CB2 receptor; radioligand binding; read-out: Binding affinity to CB2.
Data set [3] deals with T3, CYP3A4 (Homo sapiens, UniProt P08684). Conditions: read-out: IC(50) for CYP3A4 inhibition.
Data set [4] concerns the target T4, CYP2C9 (Homo sapiens, UniProt P11712). The note with it: read-out: IC(50) for CYP2C9 inhibition.
A further data set addresses T5, CYP1A2 (Homo sapiens, UniProt P05177).
T5 sequence (P05177 1-516): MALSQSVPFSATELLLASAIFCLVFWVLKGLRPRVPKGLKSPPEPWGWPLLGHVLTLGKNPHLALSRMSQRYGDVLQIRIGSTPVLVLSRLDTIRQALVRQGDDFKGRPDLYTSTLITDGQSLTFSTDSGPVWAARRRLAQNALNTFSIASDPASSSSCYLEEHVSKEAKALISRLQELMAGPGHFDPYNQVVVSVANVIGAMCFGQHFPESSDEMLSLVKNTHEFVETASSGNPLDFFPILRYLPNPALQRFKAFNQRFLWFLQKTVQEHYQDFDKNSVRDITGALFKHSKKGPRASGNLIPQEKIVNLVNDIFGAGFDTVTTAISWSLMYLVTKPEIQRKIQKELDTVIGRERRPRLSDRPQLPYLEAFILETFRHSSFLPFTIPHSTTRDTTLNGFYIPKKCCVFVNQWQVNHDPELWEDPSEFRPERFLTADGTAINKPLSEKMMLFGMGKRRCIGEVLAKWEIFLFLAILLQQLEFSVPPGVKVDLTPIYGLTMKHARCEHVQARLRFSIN
The note with it: read-out: IC(50) for CYP1A2 inhibition.

In data set [5] the target is T3, CYP3A4. Conditions: standard substrate of CYP3A4.
The target of another data set is T6, UGT1A9 (Homo sapiens, UniProt O60656).
T6 sequence (O60656 26-530): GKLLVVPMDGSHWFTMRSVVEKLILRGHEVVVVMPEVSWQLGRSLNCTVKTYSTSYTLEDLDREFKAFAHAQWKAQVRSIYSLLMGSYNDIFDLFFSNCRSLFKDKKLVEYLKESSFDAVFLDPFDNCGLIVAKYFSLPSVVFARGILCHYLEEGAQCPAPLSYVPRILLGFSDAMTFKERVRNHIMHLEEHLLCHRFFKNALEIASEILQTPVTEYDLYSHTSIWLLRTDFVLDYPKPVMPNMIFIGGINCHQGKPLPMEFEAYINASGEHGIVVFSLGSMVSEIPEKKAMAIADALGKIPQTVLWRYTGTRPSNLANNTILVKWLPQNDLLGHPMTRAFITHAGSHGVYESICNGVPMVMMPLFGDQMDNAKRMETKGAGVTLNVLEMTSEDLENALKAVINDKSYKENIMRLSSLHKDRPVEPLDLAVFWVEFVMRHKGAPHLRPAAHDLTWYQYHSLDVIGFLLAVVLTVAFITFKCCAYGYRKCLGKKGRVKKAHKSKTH
The note with it: at 200 micromolar carvacrol; test substrate 4-methylumbelliferone.

The target of another data set is CYP2B6 (Homo sapiens, UniProt P20813). Conditions: standard substrate of CYP2B6.
Another data set deals with CYP2A6 (Homo sapiens, UniProt P11509). The note with it: standard substrate of CYP2A6.
Data set [6] addresses T4, CYP2C9. Conditions: standard substrate of CYP2C9.
The target in another data set is CYP2D6 (Homo sapiens, UniProt P10635). Conditions: standard substrate of CYP2D6.
Another data set addresses T7, CYP2C8 (Homo sapiens, UniProt P10632).
T7 sequence (P10632 1-490): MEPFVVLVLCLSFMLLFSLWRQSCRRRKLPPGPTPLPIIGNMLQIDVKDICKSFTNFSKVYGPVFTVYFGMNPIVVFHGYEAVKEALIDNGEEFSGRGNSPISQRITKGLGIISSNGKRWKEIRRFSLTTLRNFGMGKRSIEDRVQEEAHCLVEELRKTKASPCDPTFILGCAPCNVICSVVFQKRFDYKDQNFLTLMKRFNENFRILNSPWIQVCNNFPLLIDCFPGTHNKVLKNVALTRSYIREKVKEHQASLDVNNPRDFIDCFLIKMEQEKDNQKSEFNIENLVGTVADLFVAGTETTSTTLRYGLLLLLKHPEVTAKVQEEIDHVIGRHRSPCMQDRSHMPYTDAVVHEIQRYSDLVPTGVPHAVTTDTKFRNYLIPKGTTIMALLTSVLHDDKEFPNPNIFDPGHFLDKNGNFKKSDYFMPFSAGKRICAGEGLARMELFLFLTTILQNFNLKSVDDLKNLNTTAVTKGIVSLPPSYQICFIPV
Conditions: standard substrate of CYP2C8.

For data set [7], the target named is T1, CB1.
Target sequence in this assay (P21554 whole entry, species assumed): as the sequence (P21554 whole entry) above
In another data set the target is T8, UGT1A10 (Homo sapiens, UniProt Q9HAW8).
T8 sequence (Q9HAW8 26-530): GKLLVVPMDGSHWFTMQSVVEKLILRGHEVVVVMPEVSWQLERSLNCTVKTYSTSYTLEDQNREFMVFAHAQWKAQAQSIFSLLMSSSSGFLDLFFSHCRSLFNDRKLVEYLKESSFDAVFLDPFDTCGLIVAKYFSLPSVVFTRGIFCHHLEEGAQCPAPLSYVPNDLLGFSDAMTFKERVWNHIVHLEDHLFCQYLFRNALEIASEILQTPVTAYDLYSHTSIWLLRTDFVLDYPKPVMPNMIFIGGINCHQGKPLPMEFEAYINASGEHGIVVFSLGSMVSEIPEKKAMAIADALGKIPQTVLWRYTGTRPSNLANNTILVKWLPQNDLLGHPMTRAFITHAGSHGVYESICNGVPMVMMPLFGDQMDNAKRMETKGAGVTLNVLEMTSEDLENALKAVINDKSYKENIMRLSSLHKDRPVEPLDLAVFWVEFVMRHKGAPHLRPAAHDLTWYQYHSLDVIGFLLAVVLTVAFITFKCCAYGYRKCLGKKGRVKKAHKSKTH
Conditions: extrahepatic isoform UGT1A10.

Data set [8] has as its target T1, CB1. The source holds these as a separate data set.
Target sequence in this assay (P21554 whole entry): as the sequence (P21554 whole entry) above
Data set [9] has as its target T2, human CB2 receptor.

Structures are written as SMILES. Read-outs that look alike come from different tables or passages of the source. Bounds are passed on as bounds.

T4 sequence (P11712 whole entry): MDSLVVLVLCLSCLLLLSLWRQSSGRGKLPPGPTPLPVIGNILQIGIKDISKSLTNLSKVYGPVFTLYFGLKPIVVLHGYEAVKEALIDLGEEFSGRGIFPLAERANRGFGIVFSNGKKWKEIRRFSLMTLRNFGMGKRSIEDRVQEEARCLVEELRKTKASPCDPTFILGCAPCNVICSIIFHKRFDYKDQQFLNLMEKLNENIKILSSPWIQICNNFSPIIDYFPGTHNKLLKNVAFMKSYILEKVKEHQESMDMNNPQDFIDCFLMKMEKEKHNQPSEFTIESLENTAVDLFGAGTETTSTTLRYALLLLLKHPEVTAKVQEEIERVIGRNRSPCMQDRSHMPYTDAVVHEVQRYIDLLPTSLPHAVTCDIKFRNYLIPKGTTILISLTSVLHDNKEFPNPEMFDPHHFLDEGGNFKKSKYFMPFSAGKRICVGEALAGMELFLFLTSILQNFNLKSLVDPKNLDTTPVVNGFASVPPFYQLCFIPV
T3 sequence (P08684 whole entry): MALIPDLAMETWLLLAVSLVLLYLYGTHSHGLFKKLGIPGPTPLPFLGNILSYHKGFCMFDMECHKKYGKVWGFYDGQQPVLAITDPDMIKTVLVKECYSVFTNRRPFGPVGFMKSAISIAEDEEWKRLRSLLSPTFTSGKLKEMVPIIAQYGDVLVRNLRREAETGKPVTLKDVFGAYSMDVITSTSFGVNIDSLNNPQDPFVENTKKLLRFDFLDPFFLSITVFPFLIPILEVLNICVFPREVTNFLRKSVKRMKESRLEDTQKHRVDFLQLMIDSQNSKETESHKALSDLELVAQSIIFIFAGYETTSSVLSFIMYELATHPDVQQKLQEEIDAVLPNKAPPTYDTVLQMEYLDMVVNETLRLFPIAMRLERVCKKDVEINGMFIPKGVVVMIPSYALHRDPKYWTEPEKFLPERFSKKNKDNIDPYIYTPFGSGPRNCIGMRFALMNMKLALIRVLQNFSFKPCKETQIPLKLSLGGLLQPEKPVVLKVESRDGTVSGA
T2 sequence (P34972 whole entry): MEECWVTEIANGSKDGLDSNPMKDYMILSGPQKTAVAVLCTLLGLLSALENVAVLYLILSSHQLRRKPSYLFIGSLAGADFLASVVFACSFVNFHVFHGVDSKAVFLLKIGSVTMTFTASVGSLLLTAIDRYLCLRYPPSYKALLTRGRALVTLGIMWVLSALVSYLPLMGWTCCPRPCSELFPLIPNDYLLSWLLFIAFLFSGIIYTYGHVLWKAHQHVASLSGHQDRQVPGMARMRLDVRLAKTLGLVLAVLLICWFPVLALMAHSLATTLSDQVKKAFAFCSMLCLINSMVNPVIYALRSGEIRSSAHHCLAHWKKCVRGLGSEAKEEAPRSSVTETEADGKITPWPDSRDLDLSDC
Sequence of CYP2B6 (P20813 whole entry): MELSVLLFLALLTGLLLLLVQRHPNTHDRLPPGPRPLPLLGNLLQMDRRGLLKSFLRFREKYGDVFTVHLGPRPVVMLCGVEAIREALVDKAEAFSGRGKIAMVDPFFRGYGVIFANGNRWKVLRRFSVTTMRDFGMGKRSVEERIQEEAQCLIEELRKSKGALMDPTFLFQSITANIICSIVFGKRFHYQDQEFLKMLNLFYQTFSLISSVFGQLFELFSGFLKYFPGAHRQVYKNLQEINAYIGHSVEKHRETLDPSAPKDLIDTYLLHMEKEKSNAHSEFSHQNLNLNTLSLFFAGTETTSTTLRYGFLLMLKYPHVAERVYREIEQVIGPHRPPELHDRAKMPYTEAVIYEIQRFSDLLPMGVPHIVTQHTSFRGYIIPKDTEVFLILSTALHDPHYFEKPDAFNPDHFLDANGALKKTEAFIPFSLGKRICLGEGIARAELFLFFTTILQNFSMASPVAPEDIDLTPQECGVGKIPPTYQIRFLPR
Sequence of CYP2A6 (P11509 whole entry): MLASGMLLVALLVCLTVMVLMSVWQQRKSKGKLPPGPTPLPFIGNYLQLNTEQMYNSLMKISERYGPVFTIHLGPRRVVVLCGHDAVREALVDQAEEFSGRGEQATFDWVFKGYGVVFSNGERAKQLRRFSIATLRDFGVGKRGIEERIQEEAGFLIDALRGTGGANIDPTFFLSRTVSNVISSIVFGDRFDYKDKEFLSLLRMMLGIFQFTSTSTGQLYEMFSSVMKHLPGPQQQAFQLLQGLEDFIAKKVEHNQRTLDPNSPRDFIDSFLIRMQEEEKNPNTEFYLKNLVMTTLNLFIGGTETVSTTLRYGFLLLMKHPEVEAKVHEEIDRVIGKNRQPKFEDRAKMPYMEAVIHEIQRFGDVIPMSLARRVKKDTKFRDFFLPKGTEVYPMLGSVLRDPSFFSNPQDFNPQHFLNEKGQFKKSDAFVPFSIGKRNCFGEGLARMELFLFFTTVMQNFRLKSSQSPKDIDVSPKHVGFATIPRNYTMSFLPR
Sequence of CYP2D6 (P10635 whole entry): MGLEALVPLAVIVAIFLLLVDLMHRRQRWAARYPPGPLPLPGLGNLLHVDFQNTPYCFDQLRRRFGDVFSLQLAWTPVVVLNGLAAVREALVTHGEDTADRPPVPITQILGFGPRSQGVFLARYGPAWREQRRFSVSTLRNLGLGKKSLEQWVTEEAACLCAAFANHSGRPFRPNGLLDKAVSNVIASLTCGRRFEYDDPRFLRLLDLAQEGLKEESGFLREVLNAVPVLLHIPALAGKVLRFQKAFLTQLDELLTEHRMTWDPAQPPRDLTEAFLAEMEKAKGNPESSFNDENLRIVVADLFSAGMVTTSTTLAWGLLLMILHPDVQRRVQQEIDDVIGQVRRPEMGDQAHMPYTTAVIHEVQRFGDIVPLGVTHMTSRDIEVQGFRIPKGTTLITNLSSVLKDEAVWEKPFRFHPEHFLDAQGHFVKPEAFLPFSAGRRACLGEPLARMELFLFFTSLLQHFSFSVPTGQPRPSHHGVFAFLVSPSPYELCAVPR

For the molecule `CCCCCc1cc(O)c2c(c1)OC(C)(C)C1CC(O)C(C)=CC21` (single isomer, unassigned) [Compound 2, 8-beta-hydroxy-delta-9-THC], the Ki on CB1 [1] was 65 nM; on human CB2 receptor [2], 88 nM.

Turning to `CCCCCc1cc(O)c2c(c1)OC(C)(C)C1CC(O)C(C)=CC21` (single isomer, unassigned) [Compound 1, 8-alpha-hydroxy-delta-9-THC], the Ki at CB1 [1] is 1910 nM; at human CB2 receptor [2] it was 3220 nM.

On to `COc1cc(/C=C/C(O)=C/C(=O)/C=C/c2ccc(O)cc2)ccc1O` [Compound 12, demethoxycurcumin], for which the IC50 was 7000 ± 1700 nM on CYP3A4 [3], 1400 ± 200 nM at CYP2C9 [4] and 34000 ± 14200 nM at CYP1A2.

Consider `C=C1CCC2C(c3c(O)cc(CCCCC)cc3OC2(C)C)C1O` (single isomer, unassigned) [Compound 4, 10-beta-hydroxy-delta-9,11-hexahydro-cannabinol], for which the Ki was 830 nM at CB1 [1] and 3270 nM on human CB2 receptor [2].

As to `Cc1ncc2n1-c1ccc(Cl)cc1C(c1ccccc1F)=NC2` [midazolam], the Km on CYP3A4 [5] was 1.8 µM.

In the case of `Cc1ccc(C(C)C)cc1O` [carvacrol], the “4-methylumbelliferone glucuronidation activity remaining” value at UGT1A9 is 20 % maximal activity.

Take `CC(NC(C)(C)C)C(=O)c1cccc(Cl)c1` (stereo not shown) [bupropion]: at CYP2B6, the Km is 137 µM.

For the molecule `O=c1ccc2ccccc2o1` [coumarin], the Km on CYP2A6 is 1 µM.

Regarding `O=C(O)Cc1ccccc1Nc1c(Cl)cccc1Cl` [diclofenac], the Km at CYP2C9 [6] was 3.5 µM.

On to `COc1ccc2c(c1)[C@]13CCCC[C@@H]1[C@H](C2)N(C)CC3` [dextromorphone], for which the Km on CYP2D6 is 5 µM.

For `CCN(CC)Cc1cc(Nc2ccnc3cc(Cl)ccc23)ccc1O` [amodiaquine], the Km on CYP2C8 is 0.9 µM.

As to `COc1cc(/C=C/C(=O)CC(=O)/C=C/c2ccc(O)c(OC)c2)ccc1O` [Compound 11, curcumin], the IC50 at CYP1A2 is over 100000 nM.

As for `C=C1CCC2C(c3c(O)cc(CCCCC)cc3OC2(C)C)C1O` (single isomer, unassigned) [Compound 5, 10-alpha-hydroxy-delta-9,11-hexahydro-cannabinol], the Ki on CB1 [1] is 117 nM; at human CB2 receptor [2] it was 129 nM.

For `CC(C)=C1C[C@@H]2O[C@@]2(C)CC/C=C(\C)CC1=O` [Compound 7, (4S,5S)-(−)-germacrone-4,5-epoxide], the IC50 at CYP3A4 [3] was 1000 ± 200 nM; on CYP2C9 [4], 7600 ± 2500 nM; at CYP1A2, 33200 ± 3600 nM.

For the molecule `CCCCCc1cc(O)c2c(c1)OC(C)(C)[C@@H]1CCC(CO)=C[C@@H]21` [Compound 11-OH-THC, 11-hydroxy-delta-9-tetrahydrocannabinol], the “Functional character at CB1” value on CB1 [7] is reported as “agonists”. Moreover, the Km on UGT1A10 was 16 µM.

In the case of `CCCCCc1cc(O)c2c(c1)OC(C)(C)C1CC=C(C)C(O)C21` (stereo not drawn) [Compound 3, 10-alpha-hydroxy-delta-8-THC], the results for the Ki on CB1 [1] and at human CB2 receptor [2] were 31 nM and 30 nM, respectively. At CB1 [8], the “Functional character at CB1” value was “partial agonist”. In addition, the “Functional character at CB2” value at human CB2 receptor [9] is “partial agonist”.

`C[C@]12CC[C@H]3[C@@H](CCC4=CC(=O)CC[C@@]43C)[C@@H]1CC[C@@H]2O` [testosterone]: at CYP3A4 [5], the Km was 64 µM.

With `CCCCCc1cc(O)c2c(c1)OC(C)(C)c1ccc(C)cc1-2` [CBN, cannabinol], the Km at UGT1A10 is 55 µM.

On to `CCCCCc1cc(O)c2c(c1)OC(C)(C)[C@@H]1CC=C(CO)C[C@@H]21` [11-hydroxy-delta-8-THC], for which the “Functional character at CB1” value on CB1 [7] is “agonists”.
